For 6 compounds, BBB activity results are on record in patent US20230107642A1 (Erasca, Inc., priority 2020, published 2023).

Structures are written as SMILES.

The nature of this series: Determination of total drug concentration in rat brain (BBB penetration). Format: in vivo. The settings on record: male SD rat, 2 mg/kg IV infusion for 4 hours, brain collected at end of 4 hours.
Consider `C=CC(=O)N1[C@H](C)CN(c2nc(=O)n3c4c(c(-c5ccc(F)cc5F)c(C(F)(F)F)cc24)SCC2(COC2)C3)C[C@@H]1C` [Example 13-87], for which the BBB activity entry is on record as “− (Compounds that did not meet this threshold are indicated as “−”)”. Next, `C=CC(=O)N1CCN(c2nc(=O)n3c4c(c(-c5ccc(F)cc5F)c(C(F)(F)F)cc24)SC[C@@H]3CC2CCOCC2)[C@@H](C)C1` [Example 13-88]: “− (Compounds that did not meet this threshold are indicated as “−”)”; `C=CC(=O)N1[C@H](C)CN(c2nc(=O)n3c4c(c(-c5ccc(F)cc5)c(C(F)(F)F)cc24)SCC(COC)(COC)C3)C[C@@H]1C` [Example 13-89]: “− (Compounds that did not meet this threshold are indicated as “−”)”; `C=CC(=O)N1[C@H](C)CN(c2nc(=O)n3c4c(c(-c5cc(Cl)c(F)cc5F)c(C(F)(F)F)cc24)SC[C@@H](Nc2ncccn2)C3)C[C@@H]1C` [Example 13-90]: “− (Compounds that did not meet this threshold are indicated as “−”)”.

As to `C=CC(=O)N1C[C@H](C)N(c2nc(=O)n3c4c(c(-c5ccc(F)cc5F)c(C(F)(F)F)cc24)OC[C@@H]3COCCOC)C[C@H]1C` [Example 13-91], the BBB activity entry is “− (Compounds that did not meet this threshold are indicated as “−”)”. The result for `C=CC(=O)N1CCN(c2nc(=O)n(-c3c(C)ccnc3C(C)C)c3nc(-c4c(O)cccc4F)c(F)cc23)[C@@H](C)C1` [Example 13-92] reads “− (Compounds that did not meet this threshold are indicated as “−”)”.
